From publication PMC6349905 (Cell Death Discovery, 2019)
Where two headings read alike, the source gives them in different places.

Key:
TMEM97 KO HeLa cells = experiment: Cell viability assay (CellTiter Glo), TMEM97 KO cells; assay type: cell-based, human; conditions: 24 h, mean ± SD
Method: (§1) HeLa human cervical cancer cells were from American Type Culture Collection (ATCC, Manassas, VA). Control, TMEM97 KO, PGRMC1 KO and TMEM97/PGRMC1 double KO HeLa cell lines were grown in MEM containing 10% fetal bovine serum, 2 mM L-glutamine, 1% non-essential amino acids, 100 units/ml penicillin, and 100 μg/ml streptomycin. All the cell lines were maintained at 37 °C in a humidified incubator with a 5% CO2/95% air atmosphere.

sigma-1 receptors = molecular target: T1, sigma-1 receptors (Cavia porcellus, UniProt Q60492); experiment: Sigma-1 receptor competition binding assay with [3H](+)-pentazocine; parameters: species or system guinea pig
T1 construct: 100 μg guinea pig brain membrane homogenates; from tissue; host or cells: guinea pig brain membrane homogenates
Method: (§2) The sigma-1 and sigma-2 receptor binding affinities of sigma-2 ligands were determined using a competition assay as previously described[32],[33]. […] The concentrations of each non-radioactive compound ranged from 0.1 to 10 μM. The non-specific binding was determined in the presence of 10 μM haloperidol. […] The concentrations of each non-radioactive compound ranged from 0.1 nM to 10 μM. 500 nM of (+)-pentazocine was added to mask the sigma-1 receptor binding site. The non-specific binding was determined in the presence 10 μM DTG.
(§3) After incubation, the bound ligands were filtrated with a M-24 Brandel filtration system (Brandel, Gaithersburg, MD, USA), collected on glass fiber papers (Whatman grade 934-AH, GE Healthcare Bio-Sciences, Pittsburgh, PA), and counted with a MicroBeta2 Microplate counter 2450 (Perkin Elmer, Boston, MA). […] Ki values were reported as mean ± SD from at least three independent experiments.

PGRMC1 KO HeLa cells = experiment: Cell viability assay (CellTiter Glo), PGRMC1 KO cells; assay type: cell-based, human; conditions: 24 h, mean ± SD
Method: as §1

control HeLa cells = experiment: Cell viability assay (CellTiter Glo), control cells; assay type: cell-based, human; conditions: 24 h, mean ± SD
Method: as §1

[1] = test system: TMEM97/PGRMC1 double KO HeLa cells; experiment: Cell viability assay (CellTiter Glo), double KO cells; assay type: cell-based, human; conditions: 24 h, mean ± SD
Method: as §1

[2] = test system: control, TMEM97 KO, PGRMC1 KO and double KO HeLa cells; experiment: Cell viability assay across control and knockout HeLa cell lines (results in words); conditions: for cytotoxicity in control and knockout cells: TMEM97 KO, PGRMC1 KO and double KO HeLa cells; for block of sigma-2 ligand-induced cytotoxicity: 30 µM, 1 h pre-incubation, then with sigma-2 agonists 24 h, all four cell lines
Method: In order to study whether sigma-2 ligand-induced cytotoxicity is mediated by sigma-1 receptors, we used a sigma-1 agonist, (+)-pentazocine, or sigma-1 antagonist, NE-100, to block the sigma-1 binding site and then examined sigma-2 ligand-induced cytotoxicity. […] We pre-incubated cells with vehicle (cell culture media), 30 µM (+)-pentazocine, or 30 µM NE-100 for 1 h, then treated cells with sigma-2 agonists in the absence or presence of (+)-pentazocine or NE-100 for 24 h.
The cytotoxicity of compounds was determined using the CellTiter Glo® chemiluminescent assay (Promega, Madison, WI) that measures ATP. Cells were plated in black wall clear bottom 96-well plates at 5000 cells per well 24 h before treatment. Each compound was dissolved in DMSO and serially diluted in culture medium to acquire the desired concentrations. The final concentration of DMSO in the cell culture medium was no more than 1.0%. After 24 h treatment with the various compounds, 25 μl of the CellTiter Glo® Solution Reagent was added to each well. Then plates were immediately read on a Perkin Elmer Enspire® Multimode Plate Reader. Luminescence detected for each well was normalized to the untreated control and data was calculated as percent viability. The EC50, defined as the concentration of the sigma ligand required to inhibit cell proliferation by 50% relative to untreated cells, was determined from the dose–response curves generated using GraphPad Prism version 6 (GraphPad Software, Inc. La Jolla, CA).

sigma-2 receptors [3] = molecular target: T2, sigma-2 receptors (Rattus norvegicus, UniProt Q5U3Y7); experiment: Sigma-2 receptor competition binding assay with [3H]DTG; parameters: 60 μg Sprague Dawley rat liver membrane homogenates; from tissue; host or cells: Sprague Dawley rat liver membrane homogenates
T2 sequence (Q5U3Y7 1-176): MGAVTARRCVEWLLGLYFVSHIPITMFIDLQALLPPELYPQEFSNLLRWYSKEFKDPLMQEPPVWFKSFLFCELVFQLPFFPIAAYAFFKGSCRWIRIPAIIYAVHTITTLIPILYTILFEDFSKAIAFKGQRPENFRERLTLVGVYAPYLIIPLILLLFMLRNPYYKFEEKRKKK
Method: as §2, §3

[4] = test system: control, TMEM97 KO, PGRMC1 KO and double KO HeLa cells; experiment: Internalization of SW120 (confocal imaging); assay type: cell-based, human; conditions: 100 nM, room temperature
Method: HeLa cells were plated on 35-mm-diameter glass-bottom dishes at 2 × 10^5 cells per dish and incubated for 24 h. Prior to imaging, media was removed and fresh media containing 100 nM SW120 was added to the dishes. SW120 uptake in the live cells at room temperature was imaged using an inverted confocal microscope (Leica STED 3× super-resolution microscope). Images were acquired at 25 s intervals using a ×10 objective lens (using an excitation wavelength of 488 nm, and a 505 to 540 nm bandpass filter). Five optical slices at 2-μm intervals were scanned using the Z-stack function of the Leica imaging software. The brightest optical slice out of the five Z-stack optical slices was chosen for fluorescent intensity analysis. Twenty cells were analyzed in each dish using Fiji, an open-source platform based on ImageJ[35]. The fluorescent intensity was calculated as an average of 60 cells from three independent experiments (mean ± SEM).

[5] = test system: DTG residual binding site (RBS); experiment: DTG RBS competition binding assay, TMEM97 KO cell membranes; parameters: species or system human; conditions: TMEM97 KO HeLa cell membranes, 45 nM [3H]DTG, 500 nM (+)-pentazocine mask
Method: (§4) The binding affinities of sigma-2 ligands for the DTG RBS were determined using a competition assay as previously described[13],[33] with minor modification. For cell harvesting, TMEM97 KO or TMEM97/PGRMC1 double KO HeLa cells were scraped from culture dishes in ice-cold Phosphate-Buffered Saline (PBS) and collected by centrifugation. The cell pellets were immediately stored at −80 °C until use. For cell membrane homogenate preparation, the cell pellets were re-suspended in 10 mL ice-cold PBS, and homogenized using Wheaton overhead stirrer (120 Vac Overhead Stirrer, Millville, NJ, USA) at the speed of 2 for 30 sec. The cell homogenates were then centrifuged for 20 min at 31,000×g at 4 °C. After centrifugation, the supernatant was discarded and the pellets were re-suspended in 1 mL ice-cold PBS and stored at −80 °C freezer until use. […] 500 nM (+)-pentazocine was added to mask the sigma-1 receptor binding site. The non-specific binding was determined in the presence of 60 μM cold DTG.
as §3

[6] = test system: DTG residual binding site (RBS); experiment: DTG RBS competition binding assay, double KO cell membranes; parameters: species or system human; conditions: double KO HeLa cell membranes, 45 nM [3H]DTG, 500 nM (+)-pentazocine mask
Method: as §4, §3

[7] = test system: caspase-3 activation in control and knockout HeLa cells; experiment: Caspase-Glo 3/7 assay; assay type: cell-based, human; conditions: 24 h, TMEM97 KO and PGRMC1 KO cell lines
Method: HeLa cells were plated in white opaque 96-well plate at a cell density of 5000 cells per well for 24 h. […] Caspase-3/7 activity was measured by using the Caspase-Glo 3/7 Assay (Promega).

[8] = molecular target: DTG residual binding site (RBS); parameters: method as in PMID 30443021; conditions: double KO HeLa cell membranes; read-out: Kd for the [3H]DTG RBS, double KO cell membranes; cited from earlier work
sigma-2 receptors [9] = molecular target: T2, sigma-2 receptors; conditions: rat liver membranes, 500 nM (+)-pentazocine mask
Method: binding, the nonspecific binding was determined inthe presence of
was added to mask the sigma-1 receptor binding site and the
nonspecific binding was determined in the presence 10 μM DTG.
The Kd and Bmax values were determined by a nonlinear regression
analysis using GraphPad Prism software.
The Kd and Bmax values were
reported as mean ± SD in at least three independent experiments

[10] = molecular target: DTG residual binding site (RBS); parameters: method as in PMID 30443021; conditions: TMEM97 KO HeLa cell membranes; read-out: Kd for the [3H]DTG RBS, TMEM97 KO cell membranes; cited from earlier work
[11] = guinea pig brain membranes, 5 nM [3H](+)-pentazocine, mean ± SD, read-out: Ki for sigma-1 receptors
[12] = rat liver membranes, 5 nM [3H]DTG, 500 nM (+)-pentazocine mask, mean ± SD, read-out: Ki for sigma-2 receptors

T1 sequence (Q60492 whole entry): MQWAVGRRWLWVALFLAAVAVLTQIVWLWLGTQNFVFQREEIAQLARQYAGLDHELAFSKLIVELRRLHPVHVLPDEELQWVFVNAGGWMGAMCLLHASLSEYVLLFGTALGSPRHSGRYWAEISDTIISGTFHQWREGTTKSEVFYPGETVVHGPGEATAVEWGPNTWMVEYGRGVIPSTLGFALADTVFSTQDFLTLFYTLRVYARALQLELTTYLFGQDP

SMILES: COc1cc2c(cc1OC)CN(CCCCNC(=O)c1cc(C)ccc1OC)CC2 [RHM-1]
- EC50 (TMEM97 KO HeLa cells; Homo sapiens): > 200 µM
- Ki (sigma-1 receptors; [11]): 1.93 ± 0.625 µM
- EC50 (PGRMC1 KO HeLa cells; Homo sapiens): > 200 µM
- EC50 (control HeLa cells; Homo sapiens): > 200 µM
- EC50 ([1]; Homo sapiens): > 200 µM
- cytotoxicity in control and knockout cells [2]: did not exhibit

SMILES: COc1ccc(C)cc1NC(=O)OC1CC2CCCC(C1)N2CCCCCCCCCCNc1ccc([N+](=O)[O-])c2nonc12 (stereo not drawn) [SW120]
- Ki (sigma-1 receptors; [11]): 1.94 ± 0.262 µM
- Ki (sigma-2 receptors [3]): 0.001 ± 0.0003 µM
- uptake signals at 60, 90 and 120 min, all cell lines [4]: essentially the same for all the cell lines
- internalization rate in knockout cells compared to control cells ([4]; 25-sec intervals for 18 min, TMEM97 KO, PGRMC1 KO and double KO cells): reduced internalization rates

SMILES: CC(C)=CCN1CC[C@]2(C)c3cc(O)ccc3C[C@H]1[C@H]2C [(+)-pentazocine]
- EC50 (TMEM97 KO HeLa cells): > 200 µM
- EC50 (PGRMC1 KO HeLa cells): > 200 µM
- EC50 (control HeLa cells): > 200 µM
- EC50 [1]: > 200 µM
- block of sigma-2 ligand-induced cytotoxicity [2]: neither (+)-pentazocine nor NE-100 blocked sigma-2 ligand-induced cytotoxicity
- cytotoxicity in control and knockout cells [2]: did not exhibit cytotoxicity

SMILES: COc1ccc(C)cc1NC(=O)OC1CC2CCCC(C1)N2CCCCCCCCCCN (stereo not drawn) [SW43]
- Ki [5]: 33.5 µM
- EC50 (TMEM97 KO HeLa cells; Homo sapiens): 30.4 ± 3.4 µM
- Ki (sigma-1 receptors; [11]): 0.278 ± 0.065 µM
- EC50 (PGRMC1 KO HeLa cells; Homo sapiens): 33.2 ± 1.6 µM
- EC50 (control HeLa cells; Homo sapiens): 33.7 ± 8.6 µM
- Ki [6]: 8.62 µM
- EC50 of caspase-3/7 activation, comparison of cell lines [7]: identical
- Ki (sigma-2 receptors [3]): 0.0129 ± 0.0023 µM
- EC50 ([1]; Homo sapiens): 32.8 ± 3.8 µM

SMILES: Cc1ccccc1NC(=N)Nc1ccccc1C [[^3H]DTG, 1,3-Di-o-tolylguanidine]
- Kd [8]: 0.403 µM
- Bmax of [3H]DTG (sigma-2 receptors [9]): 8958.0 ± 924.9 fmol/mg
- Kd [10]: 0.302 µM

SMILES: Fc1ccc(-n2cc(CCCCN3CCC4(CC3)OCc3ccccc34)c3ccccc32)cc1 [Siramesine, siramesine]
- Ki [5]: 0.115 µM
- EC50 (TMEM97 KO HeLa cells; Homo sapiens): 10.3 ± 1.49 µM
- Ki (sigma-1 receptors): 0.003 ± 0.0005 µM
- EC50 (PGRMC1 KO HeLa cells; Homo sapiens): 10.7 ± 0.7 µM
- EC50 (control HeLa cells; Homo sapiens): 12.1 ± 1.7 µM
- Ki [6]: 0.0497 µM
- EC50 ([1]; Homo sapiens): 10 ± 1.3 µM

SMILES: COc1cc2c(cc1OC)CN(CCCCNC(=O)c1cc(C)ccc1OCCF)CC2 [ISO-1]
- EC50 (TMEM97 KO HeLa cells; Homo sapiens): > 200 µM
- Ki (sigma-1 receptors; [11]): 0.0239 ± 0.0019 µM
- EC50 (PGRMC1 KO HeLa cells; Homo sapiens): > 200 µM
- EC50 (control HeLa cells; Homo sapiens): > 200 µM
- Ki (sigma-2 receptors [3]; [12]): 0.002 ± 0.0006 µM
- EC50 ([1]; Homo sapiens): > 200 µM
- cytotoxicity in control and knockout cells [2]: did not exhibit

SMILES: COc1cccc2c1CCCC2CCCN1CCN(C2CCCCC2)CC1 (stereo not drawn) [PB28, 1-Cyclohexyl-4-[3-(5-methoxy-1,2,3,4-tetrahydronaphthalen-1-yl)propyl]piperazine]
- Ki [5]: 0.0087 µM
- EC50 (TMEM97 KO HeLa cells; Homo sapiens): 59.8 ± 10.7 µM
- EC50 (PGRMC1 KO HeLa cells; Homo sapiens): 59.4 ± 8 µM
- EC50 (control HeLa cells; Homo sapiens): 58.2 ± 5.9 µM
- Ki [6]: 0.0052 µM
- Ki (sigma-2 receptors [3]; [12]): 0.0011 ± 0.0003 µM
- EC50 ([1]; Homo sapiens): 57.4 ± 6.9 µM

SMILES: CCCN(CCC)CCc1ccc(OC)c(OCCc2ccccc2)c1 [NE-100]
- EC50 (TMEM97 KO HeLa cells): > 200 µM
- EC50 (PGRMC1 KO HeLa cells): > 200 µM
- EC50 (control HeLa cells): > 200 µM
- EC50 [1]: > 200 µM
- block of sigma-2 ligand-induced cytotoxicity [2]: neither (+)-pentazocine nor NE-100 blocked sigma-2 ligand-induced cytotoxicity
- cytotoxicity in control and knockout cells [2]: did not exhibit cytotoxicity

SMILES: COc1cc2c(cc1OC)CN(CCCCNC(=O)c1cc(I)cc(OC)c1OC)CC2 [RHM-4]
- Ki [5]: > 100 µM
- EC50 (TMEM97 KO HeLa cells; Homo sapiens): > 200 µM
- Ki (sigma-1 receptors; [11]): 3.61 ± 0.533 µM
- EC50 (PGRMC1 KO HeLa cells; Homo sapiens): > 200 µM
- EC50 (control HeLa cells; Homo sapiens): > 200 µM
- Ki [6]: > 100 µM
- Ki (sigma-2 receptors [3]; [12]): 0.0024 ± 0.0002 µM
- EC50 ([1]; Homo sapiens): > 200 µM
